Results taken from patent publication US20210113586A1, “NEW USE AND METHODS OF MODULATING IMMUNE RESPONSES” (DIAMYD MEDICAL AB, priority 2018, published 2021).

Legend:
responder CD4+ T cells = assay: Proliferation of anti-CD3 stimulated GABA responder CD4+ T cells from ND individuals; type: cell-based, human; conditions: Example 1, FIG. 1B; CD4-positive cells from 10 healthy donors; 100 nM GABA
Protocol: (§1) Peripheral Blood Mononuclear cells (PBMCs) are isolated from blood from donors diagnosed with Type-1 diabetes and healthy controls. Alternatively, CD4-positive cells (T-cells) are further isolated from PBMCs by e.g. MACS beads, FACS or similar technology. […] A reasonable replication, such as 3 cultures of each condition, is performed. A normalized proliferation value for each culture is then calculated by a standard proliferation measurement method, such as by CFSE staining or radioactive thymidine incorporation (requiring additional factors be added during culture) or by staining for proliferation markers.
(§2) In the FIG. 1, the proliferation of cells retrieved from 13 T1D subjects and 15 healthy controls were inspected. […] A normalized proliferation index was calculated for each culture.
(§3) The proliferation of freshly isolated human PBMCs or CD4^+ T cells was evaluated with MTT (3-(4,5-Dimethylthiazol-2-yl)-2,5-Diphenyltetrazolium Bromide) assay (Ring et al., 2012). Cells were suspended in complete medium (RPMI 1640 supplemented with 2 mM glutamine, 25 mM HEPES, 10% heat inactivated fetal bovine serum, 100 U/ml penicillin, 10 mg/ml streptomycin, 5 mM R-mercaptoethanol) in a concentration 1 million cells per milliliter. The assay was performed in 96-well plates in duplicates or triplicates, where each well was pre-coated with 3 μg/ml anti-CD3 antibody for 3-5 h at 37° C. Each well was loaded with 100,000 cells. Drugs were added to the wells at the relevant concentrations. The plate was incubated for 68 h at 37° C. (95% O2, 5% CO2) and then, a media-soluble tetrazolium dye MTT was added to a final concentration of 1 mM after which the plate was incubated for additional 4 h. The plate was then centrifuged at 2,000 RPM for 10 min to pellet the insoluble purple formazan crystals. The supernatant culture media was collected, stored at −80° C. and used for analysis of cytokines using the multiplex proximity extension assay (PEA). The formazan crystal pellet was dissolved in DMSO and the plate was read within 10 min using a Multiskan MS plate reader (Labsystems) at 550 nm. The optical density value was used as the proliferation index value. Drugs were purchased from Sigma-Aldrich or Tocris (Bristol, UK).

GABAA receptors = assay: Patch-clamp single-channel current recording in CD4+ T cells; type: cell-based, human; conditions: GABA 100 or 500 nM; n=54 cells; FIG. 3i
Protocol: GABA-activated currents were recorded by the patch-clamp technique as previously described (Bjurstom et al., 2008, Jin et al., 2011a). Extracellular recording solution contained (in mM): 145 NaCl, 3 KCl, 1 CsCl, 1 CaCl2, 1 MgCl2, 10 glucose and 10 TES; the pH was adjusted to 7.4 with NaOH. To record in the whole-cell configuration, the pipette solution contained (in mM): 136 CsCl, 20 KCl, 1 MgCl2, 3 MgATP and 10 TES; pH was adjusted to 7.3 with CsOH. The pipette solution for the cell-attached configuration contained (in mM): 69 NaCl, 5 KCl, 75 CsCl, 1 CaCl2, 1 MgCl2 and 10 TES; pH was adjusted to 7.4 with NaOH. […] The pipette potential (Vp) was −80 mV (hyperpolarizing) in the whole-cell configuration and −60 mV (depolarizing) in the cell-attached configuration.

[1] = test system: PBMCs from type 1 diabetic (T1D) patients; conditions: GABA 100 nM
Protocol: as §3
Plasma samples, and culture media samples that were collected from plate wells at the end of the proliferation assay, were analyzed by multiplex PEA with an Olink Inflammation […] panel, targeting 92 proteins related to inflammation (Olink Proteomics, Uppsala, Sweden) as previously described (Edvinsson et al., 2017, Assarsson et al., 2014, Larsson et al., 2015, Larssen et al., 2017). Briefly, 1 μl of sample (plasma samples or cell culture media samples) or negative control was mixed with 3 μl probe solution containing a set of 92 paires DNA-oligonucleotide-conjugated antibodies. Upon recognition of a target protein by a pair of probes, the DNA oligonucletodies on the antibodies are brought in proximity and hybridize to each other, followed by enzymatic DNA polymerization to form a new DNA molecule. The newly formed DNA molecule is then amplified and quantified using a microfluidic real-time qPCR, BioMark™ HD (Fluidigm, South San Francisco, Calif., USA). The generated quantification cycle (Cq) values are normalized against spiked-in controls to convert Cq values to Normalized Protein eXpression (NPX) value on log2 scale. NPX is an arbitrary unit, which is positively correlated to protein concentration. These NPX data were then converted to linear data, using the formula 2^NPX, prior to further statistical analysis. Limit of detection (LOD) for each protein was defined as three standard deviations above the background. Proteins with levels below LOD were excluded from further data analysis.

[2] = test system: non-responder CD4+ T cells; assay: Proliferation of anti-CD3 stimulated GABA non-responder CD4+ T cells from ND individuals; type: cell-based, human
Protocol: as §1, §2
The proliferation of freshly isolated human PBMCs or CD4^+ T cells was evaluated with MTT (3-(4,5-Dimethylthiazol-2-yl)-2,5-Diphenyltetrazolium Bromide) assay (Ring et al., 2012). Cells were suspended in complete medium (RPMI 1640 supplemented with 2 mM glutamine, 25 mM HEPES, 10% heat inactivated fetal bovine serum, 100 U/ml penicillin, 10 mg/ml streptomycin, 5 mM R-mercaptoethanol) in a concentration 1 million cells per milliliter. […] The formazan crystal pellet was dissolved in DMSO and the plate was read within 10 min using a Multiskan MS plate reader (Labsystems) at 550 nm. […]

[3] = T1D PBMCs, normalized to control

With `NCCCC(=O)O` [GABA, gamma-aminobutyric acid] the “proliferation in the presence of GABA” value (responder CD4+ T cells) was “did proliferate less”, the GABAA single-channel currents (GABAA receptors) was “activated” and the “4E-BP1 in culture medium, % Mean” value [1, 3] was 45.5%. For the same molecule, the “ADA in culture medium, % Mean” value [1, 3] was 53.4%, the “AXIN1 in culture medium, % Mean” value [1, 3] was 62.8% and the “CASP-8 in culture medium, % Mean” value [1, 3] was 60.9%. For the same molecule, the “CCL4 in culture medium, % Mean” value [1, 3] was 85.1%, the “CCL19 in culture medium, % Mean” value [1, 3] was 43.8% and the “CCL20 in culture medium, % Mean” value [1, 3] was 31.5%. For the same molecule, the “CD244 in culture medium, % Mean” value [1, 3] was 76.3%, the “CSF-1 in culture medium, % Mean” value [1, 3] was 70.5% and the “CXCL1 in culture medium, % Mean” value [1, 3] was 52.6%. The “CXCL5 in culture medium, % Mean” value [1, 3] was 68.1%, the “CXCL6 in culture medium, % Mean” value [1, 3] was 54.0% and the “CXCL9 in culture medium, % Mean” value [1, 3] was 45.5%. For the same molecule, the “CXCL10 in culture medium, % Mean” value [1, 3] was 42.5%, the “CXCL11 in culture medium, % Mean” value [1, 3] was 61.4% and the “EN-RAGE in culture medium, % Mean” value [1, 3] was 71.1%. The “Flt3L in culture medium, % Mean” value [1, 3] was 62.9%, the “IL-1 alpha in culture medium, % Mean” value [1, 3] was 43.5% and the “IL-2RB in culture medium, % Mean” value [1, 3] was 73.0%. The “IL-4 in culture medium, % Mean” value [1, 3] was 117.0%, the “IL-5 in culture medium, % Mean” value [1, 3] was 85.3% and the “IL-6 in culture medium, % Mean” value [1, 3] was 49.4%. For the same molecule, the “IL-10 in culture medium, % Mean” value [1, 3] was 61.4%, the “IL-12B in culture medium, % Mean” value [1, 3] was 53.3% and the “IL-13 in culture medium, % Mean” value [1, 3] was 53.0%. The “IL-17A in culture medium, % Mean” value [1, 3] was 58.9%, the “IL-18R1 in culture medium, % Mean” value [1, 3] was 63.3% and the “IL-24 in culture medium, % Mean” value [1, 3] was 86.9%. The “LAP TGF-beta-1 in culture medium, % Mean” value [1, 3] was 67.6%, the “LIF in culture medium, % Mean” value [1, 3] was 70.0% and the “MCP-1 in culture medium, % Mean” value [1, 3] was 53.0%. The “MCP-2 in culture medium, % Mean” value [1, 3] was 35.4%, the “MCP-3 in culture medium, % Mean” value [1, 3] was 44.6% and the “MIP-1 alpha in culture medium, % Mean” value [1, 3] was 106.2%. For the same molecule, the “MMP-1 in culture medium, % Mean” value [1, 3] was 78.4%, the “MMP-10 in culture medium, % Mean” value [1, 3] was 61.3% and the “OPG in culture medium, % Mean” value [1, 3] was 45.1%. For the same molecule, the “OSM in culture medium, % Mean” value [1, 3] was 69.8%, the “PD-L1 in culture medium, % Mean” value [1, 3] was 57.0% and the “SIRT2 in culture medium, % Mean” value [1, 3] was 53.5%. For the same molecule, the “STAMP8 in culture medium, % Mean” value [1, 3] was 53.9%, the “TGFA in culture medium, % Mean” value [1, 3] was 61.1% and the “TNF in culture medium, % Mean” value [1, 3] was 47.4%. The “TNFRSF9 in culture medium, % Mean” value [1, 3] was 71.1%, the “TNFSF14 in culture medium, % Mean” value [1, 3] was 69.9% and the “TRAIL in culture medium, % Mean” value [1, 3] was 67.0%. For the same molecule, the “TWEAK in culture medium, % Mean” value [1, 3] was 55.7%, the “VEGF-A in culture medium, % Mean” value [1, 3] was 82.1% and the “μPA in culture medium, % Mean” value [1, 3] was 86.3%. For the same molecule, the “number of cytokines whose release was increased” value ([1]; n=13, FIG. 4c) was “two”, the “proliferation in the presence of GABA” value ([2]; Example 1, FIG. 1A, CD4-positive cells from 5 healthy donors, 100 nM GABA) was “did not proliferate less” and the “decrease of proliferation by GABA” value ([2]; Example 2, non-responder T cell population) was “did not decrease”.
